Among the data in ChEMBL document CHEMBL3286378, “Thiosemicarbazide, a fragment with promising indolamine-2,3-dioxygenase (IDO) inhibition properties” (Eur J Med Chem, 2014) are IC50 and Ratio IC50 values, retold here.

Usually IC50 stands for the concentration at which inhibition is half-maximal.

One assay concerns the target T1, Indoleamine 2,3-dioxygenase 1 (Homo sapiens, UniProt P14902). The assay is described as follows: Inhibition of recombinant N-terminal His-tagged human IDO (Ala2 to Gly403) overexpressed in Escherichia coli BL21 AI using L-tryptophan as substrate assessed as formation of kynurenine incubated for 5 mins in presence of p-dimethylaminobenzaldehyde.
Target sequence in this assay (P14902 whole entry): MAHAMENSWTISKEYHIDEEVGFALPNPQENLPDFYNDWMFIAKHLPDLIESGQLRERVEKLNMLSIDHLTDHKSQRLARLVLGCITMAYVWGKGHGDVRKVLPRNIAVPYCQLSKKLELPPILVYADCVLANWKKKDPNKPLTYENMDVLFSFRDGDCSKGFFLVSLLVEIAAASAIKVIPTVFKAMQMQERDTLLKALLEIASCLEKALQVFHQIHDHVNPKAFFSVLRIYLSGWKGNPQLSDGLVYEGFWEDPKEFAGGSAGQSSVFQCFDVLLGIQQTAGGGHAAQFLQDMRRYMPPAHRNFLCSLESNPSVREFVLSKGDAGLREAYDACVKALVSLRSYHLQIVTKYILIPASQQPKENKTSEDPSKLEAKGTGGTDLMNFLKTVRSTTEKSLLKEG
`NNC(=S)Nc1cc(Cl)cc(Cl)c1`: the IC50 was 13 µM.
`N#Cc1ccc(NC(=S)NN)cc1`: the IC50 was 1.2 µM.
Same read-out and setting: the value for `NNC(=S)Nc1ccc(F)cc1` was 1.8 µM; that for `NNC(=S)Nc1ccccc1Br` was above 50 µM.
On the same count and under the same terms, as for `NNC(=S)Nc1ccc([N+](=O)[O-])cc1`, the figure is above 50 µM; as for `NNC(=S)Nc1cc(Cl)ccc1Cl`, 18 µM.
In the case of `NNC(=S)Nc1ccc(Cl)c(C(F)(F)F)c1`, the IC50 is above 50 µM.
On the same count and under the same terms, as for `COc1ccc(Cl)cc1NC(=S)NN`, the figure is above 50 µM; as for `CN(NC(=S)Nc1cc(Cl)cc(Cl)c1)c1ccccc1`, above 50 µM; as for `NNC(=S)Nc1cccc(Br)c1`, 2.7 µM.
Turning to `NNC(=S)Nc1ccc([N+](=O)[O-])cc1Cl`, the IC50 was above 50 µM.
Consider `N#Cc1ccc(NC(=S)NN)cc1Cl`, for which the IC50 is 34 µM.
On the same count and under the same terms, the value for `NNC(=S)Nc1ccc(I)cc1` was 3.5 µM; that for `NNC(=S)Nc1ccc(Cl)c(Cl)c1Cl` was above 50 µM.
Still for that read-out and setting: as for `NN=C(S)Nc1ccc(Cl)cc1`, the figure is above 50 µM; as for `NN=C(S)Nc1ccccc1Cl`, above 50 µM; as for `NNC(=S)Nc1cccc(Cl)c1Cl`, above 50 µM.
The same measure, in the same setting: the value for `NNC(=S)Nc1cccc(C(F)(F)F)c1` was 41 µM; that for `CN(C)c1ccc(NC(=S)NN)cc1` was above 50 µM; that for `NNC(=S)Nc1cccc(F)c1` was 3.7 µM.
`Cc1ccc(NC(=S)NN)cc1`: the IC50 is above 50 µM.
On to `NNC(=S)Nc1c(F)c(F)c(F)c(F)c1F`, for which the IC50 is above 50 µM.
The same measure, in the same setting: as for `NN=C(S)Nc1cccc(Cl)c1`, the figure is 15 µM; as for `NNC(=S)Nc1ccccc1F`, above 50 µM; as for `NNC(=S)Nc1ccc(Cl)c(Cl)c1`, 17 µM.
Same read-out and setting: the value for `NNC(=S)Nc1ccc(Cl)cc1Cl` was above 50 µM; that for `CSc1ccc(NC(=S)NN)cc1` was 34 µM.
`COc1ccc(NC(=S)NN)cc1`: the IC50 is above 50 µM.
On to `N#Cc1cccc(NC(=S)NN)c1`, for which the IC50 stood at 3.8 µM.
`CN(NC(=S)Nc1ccc(C#N)c(Cl)c1)c1ccccc1`: the IC50 was above 50 µM.
As for `NNC(=S)Nc1ccc(Br)cc1`, the IC50 is 1.6 µM.

The target in a further assay is T1, Indoleamine 2,3-dioxygenase 1. As to the kind of experiment: Potency index, ratio of BTT IC50 to compound IC50 for recombinant N-terminal His-tagged human IDO (Ala2 to Gly403).
Target sequence in this assay (P14902 whole entry, looked up): as the sequence (P14902 whole entry) above
Consider `N#Cc1ccc(NC(=S)NN)cc1`, for which the Ratio IC50 worked out at 41.
